This passage reports IC50 and GI50 results from ChEMBL document CHEMBL6092193, “Identification of furo[2,3-d]pyrimidin-4-ylsulfanyl-1,3,4-thiadiazole derivatives as novel FLT3-ITD inhibitors” (Eur J Med Chem, 2024).

Broadly, the IC50 is the midpoint of a concentration-inhibition curve. High values mean weaker potency, low ones greater potency. As a reminder, the GI50 is the concentration that inhibits growth by half.

Test [1] addresses Receptor-type tyrosine-protein kinase FLT3 (Homo sapiens, UniProt P36888, ITD). The test can be described thus: biochemical. In kind it is cell-based, Sf9.
The subject of the next test is MV4-11. The test is described as follows: Antiproliferative activity against human MV4-11 cells harboring homozygous FLT3-ITD mutant assessed as inhibition of cell growth incubated for 72 hrs by resazurin dye based fluorescence analysis. In kind it is functional. On the technique in general: The colour change of resazurin is a common sign of viable cells or microbes.

In a further test the test system is K562. The test is described as follows: cells. To be noted: Homo sapiens, K562, 72 h.
For another test, the system named is MOLM-13. The test is described as follows: cells. To be noted: Homo sapiens, MOLM-13, 72 h.

A value given as a limit tells only on which side of the number the result lay.

Chain of Receptor-type tyrosine-protein kinase FLT3 (P36888 whole entry, looked up, stated change not applied): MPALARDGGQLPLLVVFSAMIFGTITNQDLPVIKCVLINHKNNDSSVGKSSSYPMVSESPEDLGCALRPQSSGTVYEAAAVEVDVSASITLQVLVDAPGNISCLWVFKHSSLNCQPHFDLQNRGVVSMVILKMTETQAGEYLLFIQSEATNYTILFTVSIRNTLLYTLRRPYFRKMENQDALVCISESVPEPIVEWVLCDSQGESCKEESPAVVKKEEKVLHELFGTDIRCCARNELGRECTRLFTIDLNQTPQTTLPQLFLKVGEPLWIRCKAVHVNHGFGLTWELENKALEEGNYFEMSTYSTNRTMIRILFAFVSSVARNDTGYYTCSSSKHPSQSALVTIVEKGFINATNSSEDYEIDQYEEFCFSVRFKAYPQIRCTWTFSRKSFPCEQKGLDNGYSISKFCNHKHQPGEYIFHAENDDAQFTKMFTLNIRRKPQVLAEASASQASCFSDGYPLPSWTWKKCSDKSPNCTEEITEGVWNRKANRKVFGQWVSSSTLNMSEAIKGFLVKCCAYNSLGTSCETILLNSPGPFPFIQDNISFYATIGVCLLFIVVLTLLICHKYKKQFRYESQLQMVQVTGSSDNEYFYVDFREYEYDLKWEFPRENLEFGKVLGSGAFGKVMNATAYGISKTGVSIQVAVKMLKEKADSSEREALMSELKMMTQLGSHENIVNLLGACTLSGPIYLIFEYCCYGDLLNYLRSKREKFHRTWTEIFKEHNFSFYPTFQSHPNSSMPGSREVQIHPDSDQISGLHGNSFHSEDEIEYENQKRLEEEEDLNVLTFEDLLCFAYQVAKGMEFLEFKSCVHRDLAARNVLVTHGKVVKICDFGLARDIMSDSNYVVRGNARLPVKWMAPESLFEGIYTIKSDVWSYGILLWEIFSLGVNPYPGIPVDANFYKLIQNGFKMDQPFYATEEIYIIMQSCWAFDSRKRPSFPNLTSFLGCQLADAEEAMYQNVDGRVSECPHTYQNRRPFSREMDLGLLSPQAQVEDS
Description for K562: Antiproliferative activity against FLT3-independent human K562 cells assessed as inhibition of cell growth incubated for 72 hrs by resazurin dye based fluorescence analysis

On to `COc1ccc(-c2cc3c(Sc4nnc(NC(=O)Nc5ccc(Cl)cc5)s4)ncnc3o2)cc1`, for which the half-inhibitory concentration (IC50) in test [1] was found to be 0.022 µM. Further, the results for the 50% growth inhibitory concentration (GI50) in the test on MV4-11, in the test on K562 and in the test with MOLM-13 were 1.39 µM, above 10 µM and 1.14 µM, respectively.

`COc1cccc(NC(=O)Nc2nnc(Sc3ncnc4oc(-c5ccccc5)c(-c5ccccc5)c34)s2)c1` yielded an IC50 in test [1] of 0.004 µM. For the same molecule, the concentration for 50% growth inhibition (GI50) with MV4-11 was found to be 0.086 µM; with K562, 9.95 µM; in the test on MOLM-13, 0.185 µM.

`O=C(Nc1cccc(Cl)c1)Nc1nnc(Sc2ncnc3oc(-c4ccccc4)cc23)s1` registered a half-maximal inhibitory concentration (IC50) in test [1] of 0.01 µM. The GI50 with MV4-11 was 0.345 µM; with K562, above 10 µM; in the test with MOLM-13, 0.24 µM.

Take `Cc1ccc(NC(=O)Nc2nnc(Sc3ncnc4oc(-c5ccccc5)c(-c5ccccc5)c34)s2)cc1`: in test [1], the IC50 is 0.005 µM. Also, the 50% growth inhibitory concentration (GI50) in the test on MV4-11 was 0.134 µM; with K562, above 10 µM; in the test on MOLM-13, 0.194 µM.

Consider `O=C(Nc1ccc(Cl)c(C(F)(F)F)c1)Nc1nnc(Sc2ncnc3oc(-c4ccccc4)c(-c4ccccc4)c23)s1`, for which the IC50 in test [1] worked out at 1.27 µM. Moreover, the GI50 is 8.3 µM in the test with MV4-11, above 10 µM in the test with K562 and above 10 µM in the test on MOLM-13.

In test [1], `O=C(Nc1cccc(F)c1)Nc1nnc(Sc2ncnc3oc(-c4ccccc4)c(-c4ccccc4)c23)s1` displayed a half-maximal inhibitory concentration (IC50) of 0.004 µM. The 50% growth inhibitory concentration (GI50) with MV4-11 is 0.145 µM; in the test on K562, above 10 µM; in the test on MOLM-13, 0.65 µM.

Regarding `O=C(Nc1cccc(F)c1)Nc1nnc(Sc2ncnc3oc(-c4ccccc4)cc23)s1`, the 50% inhibitory concentration (IC50) in test [1] turned out to be 0.056 µM. In addition, the concentration for 50% growth inhibition (GI50) with MV4-11 came to 0.337 µM; with K562, 7.96 µM; with MOLM-13, 0.19 µM.

In test [1], `Cc1ccc(NC(=O)Nc2nnc(Sc3ncnc4oc(-c5ccccc5)c(-c5ccccc5)c34)s2)cc1Cl` yielded an IC50 above 5 µM. Also, the concentration for 50% growth inhibition (GI50) in the test on MV4-11, with K562 and with MOLM-13 was above 10 µM each time.

In turn, `Cc1cccc(NC(=O)Nc2nnc(Sc3ncnc4oc(-c5ccccc5)cc34)s2)c1` gave a concentration for half-maximal inhibition (IC50) in test [1] of 0.012 µM. Besides, the GI50 in the test on MV4-11 was 0.133 µM; in the test on K562, above 10 µM; in the test on MOLM-13 it was 0.105 µM.

Molecule `Cc1cccc(NC(=O)Nc2nnc(Sc3ncnc4oc(-c5ccccc5)c(-c5ccccc5)c34)s2)c1` had a half-maximal inhibitory concentration (IC50) in test [1] of 0.01 µM. Besides, the GI50 in the test with MV4-11 is 0.115 µM; in the test on K562 it was above 10 µM; in the test on MOLM-13, 0.12 µM.

As to `O=C(Nc1ccc(Cl)c(Cl)c1)Nc1nnc(Sc2ncnc3oc(-c4ccccc4)c(-c4ccccc4)c23)s1`, half-maximal inhibition in test [1] (IC50) required 0.455 µM. For the same molecule, the GI50 in the test with MV4-11 was 6.19 µM; in the test on K562, above 10 µM; with MOLM-13, 8.65 µM.

For `O=C(Nc1nnc(Sc2ncnc3oc(-c4ccccc4)c(-c4ccccc4)c23)s1)Nc1ccccc1Br`, the 50% inhibitory concentration (IC50) in test [1] was found to be 0.004 µM. For the same molecule, the GI50 was 0.29 µM in the test with MV4-11, above 10 µM with K562 and 0.427 µM in the test with MOLM-13.

Take `COc1ccc(NC(=O)Nc2nnc(Sc3ncnc4oc(-c5ccc(OC)cc5)cc34)s2)cc1`: in test [1], the IC50 was 0.023 µM. Further, the 50% growth inhibitory concentration (GI50) in the test with MV4-11 is 0.25 µM; with K562 it was above 10 µM; in the test on MOLM-13, 0.18 µM.

The molecule `COc1ccc(NC(=O)Nc2nnc(Sc3ncnc4oc(-c5ccccc5)c(-c5ccccc5)c34)s2)cc1` displayed an IC50 in test [1] of 0.005 µM. The concentration for 50% growth inhibition (GI50) was 0.061 µM in the test on MV4-11, above 10 µM with K562 and 0.083 µM with MOLM-13.

`O=C(Nc1ccccc1)Nc1nnc(Sc2ncnc3oc(-c4ccccc4)cc23)s1` yielded an IC50 in test [1] of 0.038 µM. Besides, the 50% growth inhibitory concentration (GI50) with MV4-11 is 0.165 µM; with K562, above 10 µM; in the test with MOLM-13, 0.087 µM.

`Cc1ccc(NC(=O)Nc2nnc(Sc3ncnc4oc(-c5ccccc5)cc34)s2)cc1Cl` yielded a 50% inhibitory concentration (IC50) in test [1] of 0.003 µM. Moreover, the GI50 is 0.43 µM in the test with MV4-11, 9.5 µM in the test with K562 and 0.375 µM in the test on MOLM-13.

For `O=C(Nc1ccccc1)Nc1nnc(Sc2ncnc3oc(-c4ccccc4)c(-c4ccccc4)c23)s1`, in test [1], the IC50 came out at 0.004 µM. In addition, the 50% growth inhibitory concentration (GI50) with MV4-11 is 0.074 µM; in the test on K562, above 10 µM; in the test with MOLM-13 it was 0.11 µM.

Molecule `O=C(Nc1ccc(Cl)cc1)Nc1nnc(Sc2ncnc3oc(-c4ccccc4)cc23)s1` came in with an IC50 in test [1] of 0.009 µM. Besides, the values for the GI50 in the test on MV4-11, with K562 and in the test with MOLM-13 were 0.43 µM, above 10 µM and 0.297 µM, respectively.

Molecule `O=C(Nc1nnc(Sc2ncnc3oc(-c4ccccc4)c(-c4ccccc4)c23)s1)Nc1ccc(F)cc1F` gave a 50% inhibitory concentration (IC50) in test [1] of 0.006 µM. Besides, the GI50 in the test on MV4-11 was 0.169 µM; with K562, above 10 µM; in the test with MOLM-13 it was 0.164 µM.

For `O=C(Nc1ccc(Cl)cc1)Nc1nnc(Sc2ncnc3oc(-c4ccccc4)c(-c4ccccc4)c23)s1`, in test [1], 0.016 µM corresponded to half-maximal inhibition (IC50). In addition, the concentration for 50% growth inhibition (GI50) with MV4-11 is 0.342 µM; in the test with K562, 9.87 µM; with MOLM-13, 0.452 µM.

Take `COc1ccc(-c2cc3c(Sc4nnc(NC(=O)Nc5ccccc5)s4)ncnc3o2)cc1`: the IC50 in test [1] is 0.016 µM. The GI50 with MV4-11 is 0.096 µM; with K562, above 10 µM; with MOLM-13, 0.117 µM.

In the case of `O=C(Nc1ccc(Cl)c(C(F)(F)F)c1)Nc1nnc(Sc2ncnc3oc(-c4ccccc4)cc23)s1`, inhibition in test [1] was half-maximal at 0.003 µM (IC50). The 50% growth inhibitory concentration (GI50) in the test on MV4-11 was 0.91 µM; with K562, above 10 µM; in the test on MOLM-13, 1.22 µM.

`COc1cccc(NC(=O)Nc2nnc(Sc3ncnc4oc(-c5ccccc5)cc34)s2)c1`: the midpoint of inhibition in test [1], the IC50, lay at 0.017 µM. Besides, the results for the GI50 in the test with MV4-11, in the test with K562 and in the test on MOLM-13 were 0.12 µM, 9.46 µM and 0.079 µM, respectively.

Molecule `COc1ccc(-c2cc3c(Sc4nnc(NC(=O)Nc5cccc(Cl)c5)s4)ncnc3o2)cc1` yielded an IC50 in test [1] of 0.048 µM. In addition, the GI50 in the test on MV4-11 is 1.55 µM; in the test with K562, above 10 µM; with MOLM-13, 1.06 µM.

The molecule `O=C(Nc1ccc(Br)cc1)Nc1nnc(Sc2ncnc3oc(-c4ccccc4)cc23)s1` had an IC50 in test [1] of 0.003 µM. Moreover, the GI50 with MV4-11 is 1.19 µM; in the test with K562, above 10 µM; with MOLM-13, 0.57 µM.

In the case of `COc1ccc(-c2cc3c(Sc4nnc(NC(=O)Nc5ccc(Cl)c(C(F)(F)F)c5)s4)ncnc3o2)cc1`, in test [1], the IC50 came to 0.055 µM. Also, the 50% growth inhibitory concentration (GI50) in the test with MV4-11 was above 10 µM; with K562, above 10 µM; in the test on MOLM-13 it was 5.82 µM.

For the molecule `O=C(Nc1cccc(Cl)c1)Nc1nnc(Sc2ncnc3oc(-c4ccccc4)c(-c4ccccc4)c23)s1`, in test [1], half-maximal inhibition (IC50) required 0.014 µM. The concentration for 50% growth inhibition (GI50) with MV4-11 is 0.362 µM; in the test on K562, above 10 µM; in the test with MOLM-13 it was 0.404 µM.

For the molecule `O=C(Nc1ccc(Cl)c(Cl)c1)Nc1nnc(Sc2ncnc3oc(-c4ccccc4)cc23)s1`, in test [1], half-maximal inhibition (IC50) required 0.004 µM. The concentration for 50% growth inhibition (GI50) with MV4-11 was 1.03 µM; in the test with K562, 9.83 µM; in the test with MOLM-13 it was 0.71 µM.

Take `O=C(Nc1ccc(Br)cc1)Nc1nnc(Sc2ncnc3oc(-c4ccccc4)c(-c4ccccc4)c23)s1`: the midpoint of inhibition in test [1], the IC50, lay at 0.055 µM. The GI50 with MV4-11 was 0.396 µM; in the test on K562 it was above 10 µM; in the test on MOLM-13, 0.723 µM.
